Assay [1] concerns SIRT2. The note with it: substrate ZMAL; read-out: SIRT2 IC50 (series A, compounds 1-26); cited from earlier work.
In the next assay the target is T1, recombinant SIRT2 (Homo sapiens, UniProt Q8IXJ6).
T1 sequence (Q8IXJ6 1-389): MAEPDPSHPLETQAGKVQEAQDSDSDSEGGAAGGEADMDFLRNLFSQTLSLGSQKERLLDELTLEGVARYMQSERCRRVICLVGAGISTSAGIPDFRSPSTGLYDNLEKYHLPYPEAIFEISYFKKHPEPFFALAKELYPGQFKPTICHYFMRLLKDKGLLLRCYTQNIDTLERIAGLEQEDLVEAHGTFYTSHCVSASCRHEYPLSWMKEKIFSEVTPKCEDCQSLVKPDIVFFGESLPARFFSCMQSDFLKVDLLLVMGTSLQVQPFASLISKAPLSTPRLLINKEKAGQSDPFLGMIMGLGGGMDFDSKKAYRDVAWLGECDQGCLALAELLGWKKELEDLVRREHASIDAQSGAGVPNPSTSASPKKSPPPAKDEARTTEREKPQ
As to the kind of experiment: SIRT2 deacetylase activity, recombinant SIRT2 incubated with acetylated peptide H3K9Ac and NAD+. Type of assay: biochemical. The note with it: recombinant protein. Here is the method:
The effect of the in silico screened compounds on the SIRT2 deacetylase activity was evaluated thanks to the incubation of recombinant SIRT2 with an acetylated peptide (H3K9Ac, a peptide acetylated on Lys 9) and NAD^+.

In the next assay the target is T2, recombinant human HSP70 (Homo sapiens, UniProt P0DMV8).
T2 construct: made in house; host or cells: E. coli BL21 (DE3)
As to the kind of experiment: HSP70 ATPase catalytic activity, Malachite green assay. Type of assay: biochemical. The following applies: 300 μM final concentration; read-out: percentage of inhibition of HSP70 ATPase activity. Here is the method: The impact of selected molecules on the ATPase catalytic activity of an in-house produced recombinant human HSP70 protein was determined using the Malachite green assay, incubating the recombinant protein with ATP in the presence or absence of different compounds (300 μM final concentration). The percentage of inhibition exerted by the selected compounds on the ATPase activity was as follow: 1a, 49 ± 2%; 2a, 40 ± 1%; 3a, 44 ± 4%; 4a, 20 ± 1%; 5a, 19 ± 1%; 6a, 37 ± 1%; 7a, 47 ± 1%.
The recombinant human Hsp70 protein was produced in BL21 (DE3) E. coli transformed with the pET-6xHis/hHSP70 plasmid containing the coding sequence for human HSP70 (hHSPA1A gene, NM_005345.6; purchased from Vector Builder, Vector ID VB210930). This vector allowed for producing an N-terminal 6xHis tag fusion HSP70 protein.
BL21 cells containing the vector were initially grown in Luria−Bertani medium at 37 °C (Merck, Milan, Italy) with 200 μg/mL ampicillin until the culture reached an OD600 of 0.5. The 6xHis/hHSP70 fusion protein was expressed by adding isopropyl-β-d-thiogalactopyranoside (final concentration of 0.2 mM) and incubating the bacteria culture at 37 °C for 2 h. The cells were harvested by centrifugation and then lysed by sonication in 20 mM Tris-HCl, 250 mM KCl, and 10 mM MgCl2 pH 7.4; after the addition of Triton X-100 to a final concentration of 1% and incubation for 30 min at 4 °C, the lysates were centrifugated at 10,000× g for 15 min. The HSP70 protein was purified by affinity chromatography using His GraviTrap TALON columns (Euroclone, Milan, Italy). Briefly, after loading the lysate, the resin was washed twice with 20 mM Tris-HCl, 250 mM KCl, and 10 mM MgCl2 pH 7.4 and twice with the same buffer containing 10 mM of imidazole. The elution of the recombinant protein was obtained with 150 mM imidazole, pH 7.4. Imidazole was removed from the recombinant protein through overnight dialysis using a dialysis tubing membrane (Merck KGaA, Frankfurter Strasse 250 Darmstadt, Germany) and the protein was concentrated using a Centricon (Merck Millipore, 11 Avenida Norte Bis No. 513, San Salvador, El Salvador). The protein concentrations were determined using the Bradford assay (Bio-Rad Laboratories, Inc. Italy, Segrate) and the protein purity was monitored using SDS-PAGE.
The ATPase catalytic activity of recombinant human HSP70 was measured with a colorimetric assay using the malachite green reagent. Briefly, 6 µM of HSP70 protein was incubated for 30 min at 37 °C with 5 mM ATP in 20 mM Tris-HCl, 250 mM KCl, 10 mM MgCl2, and 0.02%TritonX-100, pH 7.4. The released phosphates were quantified by adding the malachite green reagent to an aliquot of this incubation and the absorbance was recorded at 620 nm using a Clariostar plate reader. The effects of thiazoles-based molecules on the ATPase catalytic activity were measured by adding (or not) the different molecules to the incubation (at 300 µM final concentration). To correct for non-enzymatic hydrolysis of ATP and for a specific absorbance of molecules, the absorbance signal of identically treated samples lacking the HSP70 protein was subtracted.

Assay [2] concerns SIRT2. The following applies: HPLC assay, H3K9Ac; read-out: SIRT2 IC50 (series C, compounds 112-116); cited from earlier work.
The subject of assay [3] is SIRT2. The following applies: substrate RHKK(Ac)-AMC; read-out: SIRT2 IC50 (series B, compounds 27-111); cited from earlier work.

Where “and” joins values, the source holds several entries; their conditions need not be identical. Equal entries are not always repeated. Where two headings read alike, the source gives them in different places.

One may read the IC50 as the concentration at which inhibition is half-maximal. A word on the inhibition: it is the relative decrease from the control value, in per cent.

T2 sequence (P0DMV8 whole entry): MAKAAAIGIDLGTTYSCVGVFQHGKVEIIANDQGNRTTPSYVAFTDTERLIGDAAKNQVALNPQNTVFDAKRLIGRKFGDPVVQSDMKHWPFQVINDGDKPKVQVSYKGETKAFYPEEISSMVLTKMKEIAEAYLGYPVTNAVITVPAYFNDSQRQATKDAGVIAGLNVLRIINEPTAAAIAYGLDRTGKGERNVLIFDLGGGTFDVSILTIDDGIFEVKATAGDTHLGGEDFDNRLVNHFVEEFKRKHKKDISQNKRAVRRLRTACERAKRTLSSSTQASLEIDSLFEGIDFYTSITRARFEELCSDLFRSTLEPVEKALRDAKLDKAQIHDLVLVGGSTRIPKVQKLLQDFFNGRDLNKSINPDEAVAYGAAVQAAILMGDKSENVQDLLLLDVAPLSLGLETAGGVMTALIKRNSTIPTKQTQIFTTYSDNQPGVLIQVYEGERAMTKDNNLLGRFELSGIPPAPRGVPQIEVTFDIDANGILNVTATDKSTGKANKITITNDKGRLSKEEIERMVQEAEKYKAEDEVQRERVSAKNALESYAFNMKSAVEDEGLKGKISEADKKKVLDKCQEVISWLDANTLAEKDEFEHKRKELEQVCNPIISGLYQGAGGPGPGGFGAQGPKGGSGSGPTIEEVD

Take `Cc1nc(SCC(=O)Nc2ncc(Cc3cccc4ccccc34)s2)nc(C)c1C` [Compound 19]: in the assay with SIRT2 [1], the concentration for half-maximal inhibition (IC50) is 15 µM.

In the case of `Cc1cc(C)nc(SCC(=O)Nc2nnc(Cc3ccc(Cl)cc3)s2)n1` [Compound 23], the IC50 in the assay with SIRT2 [1] was 30.9 µM.

On to `Cc1cc(C)nc(SCC(=O)Nc2nnc(Cc3ccc(Br)cc3)s2)n1` [Compound 24], for which, in the assay on SIRT2 [1], the half-inhibitory concentration (IC50) was 168 µM.

For `O=C1Cc2cc(-c3csc(Nc4cccc(SC(F)(F)F)c4)n3)ccc2N1` [Compound 6a], at recombinant SIRT2, the “% Inhibition SIRT2 (at 150 μM)” value is listed as 92 ± 7%, the inhibition at 150 µM was greater than 90% and the IC50 turned out to be 27.3 ± 4.7 µM. For the same compound, the inhibition at 300 µM on recombinant human HSP70 stood at 37 ± 1%.

Consider `Cc1cc(C)cc(SCC(=O)Nc2ncc(Cc3cccc4ccccc34)s2)c1` [Compound 8], for which the IC50 in the assay on SIRT2 [1] was 207 µM and > 167 µM.

As for `CCOc1ccc2nc(NC(=O)CSc3nc(C)cc(C)n3)sc2c1` [Compound 26], the half-inhibitory concentration (IC50) in the assay on SIRT2 [1] was 207 µM and > 167 µM.

Consider `CSc1cccc(Nc2nc(-c3ccc4c(c3)CC(=O)N4)cs2)c1` [Compound 4a], for which the inhibition at 150 µM on recombinant SIRT2 worked out at 60 ± 5%. The inhibition at 300 µM at recombinant human HSP70 worked out at 20 ± 1%.

Regarding `O=C(CSc1ncccn1)Nc1ncc(Cc2cccc3ccccc23)s1` [Compound 17], the half-inhibitory concentration (IC50) in the assay on SIRT2 [1] was 2.34 µM and 2.34 to 16.8 µM.

As for `Cc1cc(C)nc(SCC(=O)Nc2nnc(Cc3cccc4ccccc34)s2)n1` [Compound 25], the IC50 in the assay with SIRT2 [1] is 1.89 µM.

On to `CCOc1cccc(Cc2cnc(NC(=O)CSc3nc(C)cc(C)n3)s2)c1` [Compound 5], for which, in the assay with SIRT2 [1], the IC50 is 1.33 µM.

As for `Cc1cc(C)nc(SCC(=O)Nc2ncc(Cc3cccc4cc(Cl)ccc34)s2)n1` [Compound 16], in the assay with SIRT2 [1], the 50% inhibitory concentration (IC50) is 0.48 µM.

As to `O=C(CSc1cccc(O)c1)Nc1ncc(Cc2cccc3ccccc23)s1` [Compound 7], the 50% inhibitory concentration (IC50) in the assay on SIRT2 [1] was 143 µM.

As for `CCCc1cc(O)nc(SCC(=O)Nc2ncc(Cc3cccc4ccccc34)s2)n1` [Compound 21], the half-maximal inhibitory concentration (IC50) in the assay on SIRT2 [1] was 127 µM.

For the compound `Cc1cc(C)nc(SCC(=O)Nc2ncc(Cc3ccc(-c4ccccc4)cc3)s2)n1` [Compound 6], the IC50 in the assay on SIRT2 [1] was 164 µM and > 167 µM.

`Cc1cc(C)nc(SCC(=O)Nc2ncc(Cc3cccc4ccc(Br)cc34)s2)n1` [Compound 15]: the half-maximal inhibitory concentration (IC50) with SIRT2 [1] is 0.21 µM.

As to `Cc1cccc(Cc2cnc(NC(=O)CSc3nc(C)cc(C)n3)s2)c1` [Compound 3], in the assay on SIRT2 [1], the half-maximal inhibitory concentration (IC50) was 1.64 µM.

`Cc1ccc2[nH]cc(C(=O)On3nnc4ccccc43)c2c1` [Compound 115]: the 50% inhibitory concentration (IC50) with SIRT2 [2] was 74 µM.

In the case of `Cc1cc(C)nc(SCC(=O)Nc2ncc(Cc3c(C)ccc4ccccc34)s2)n1` [Compound 14], the IC50 in the assay with SIRT2 [1] was 0.31 µM.

Regarding `Cc1cc(C)nc(SC(C)C(=O)Nc2ncc(Cc3cccc4ccccc34)s2)n1` (centres unmarked) [Compound 13], in the assay with SIRT2 [1], the half-maximal inhibitory concentration (IC50) is 0.26 µM.

As to `CCn1c(=O)/c(=C2\Sc3ccccc3N2C)s/c1=C\c1ccccn1` [Compound 7a, YM-08], at recombinant SIRT2, the “% Inhibition SIRT2 (at 150 μM)” value was 93 ± 9%, the inhibition at 150 µM was greater than 90% and the IC50 worked out at 19.9 ± 2.1 µM. Also, the inhibition at 300 µM on recombinant human HSP70 came out at 47 ± 1%.

Regarding `Cc1cc(C)nc(SCC(=O)Nc2ncc(C(=O)Nc3cccc4ccccc34)s2)n1` [Compound 9], the IC50 with SIRT2 [1] is 33 µM.

With `CCc1ccc(Nc2nc(-c3ccc(Cl)cc3)cs2)cc1SC` [Compound 2a], on recombinant SIRT2, the “% Inhibition SIRT2 (at 150 μM)” value was determined as 100 ± 9%, the inhibition at 150 µM is greater than 90% and the IC50 stood at 17.3 ± 2 µM. The inhibition at 300 µM at recombinant human HSP70 was 40 ± 1%.

Consider `O=C(On1nnc2ncccc21)c1c[nH]c2ccc(Br)cc12` [Compound 116], for which the concentration for half-maximal inhibition (IC50) with SIRT2 [2] is 77.1 µM.

Turning to `Cc1cc(C)nc(SCC(=O)Nc2ncc(Cc3cccc4ccccc34)s2)n1` [Compound 10, SirReal2], the inhibition at 150 µM on recombinant SIRT2 was found to be 100 ± 5%.

`Cc1cc(C)nc(SC(C)C(=O)Nc2ncc(Cc3cccc4ccccc34)s2)n1` (centres unmarked) [Compound 12]: the concentration for half-maximal inhibition (IC50) with SIRT2 [1] is 9.77 µM.

On to `CSc1cccc(Nc2nc(-c3cccc(Cl)c3)cs2)c1` [Compound 3a], for which the inhibition at 150 µM on recombinant SIRT2 came to 60 ± 8%. Also, the inhibition at 300 µM at recombinant human HSP70 worked out at 44 ± 4%.

As for `COc1ccc(Cn2cnc3sc4c(c3c2=O)CCC(NC2CCCC2)C4)c2ccccc12` (centres unmarked) [Compound 98], the IC50 with SIRT2 [3] is 0.73 µM and < 1 µM.

`O=c1c2c3c(sc2ncn1Cc1ccc2ccccc2c1)CC(NCc1ccncc1)CC3` (centres unmarked) [Compound 68]: the half-inhibitory concentration (IC50) in the assay with SIRT2 [3] was 3.14 µM.

With `CCc1cc(CC)nc(SCC(=O)Nc2ncc(Cc3cccc4ccccc34)s2)n1` [Compound 18], the IC50 in the assay on SIRT2 [1] is 45.6 µM.

Turning to `COc1cccc(CNC2CCc3c(sc4ncn(Cc5ccccc5OC)c(=O)c34)C2)c1` (centres unmarked) [Compound 55], the IC50 in the assay with SIRT2 [3] is 13.4 µM.

Take `Cc1cc(C)nc(SCC(=O)Nc2ncc(Cc3ccc(Cl)cc3)s2)n1` [Compound 4]: the IC50 in the assay with SIRT2 [1] was 3.4 µM.

Take `O=C(On1nnc2ccccc21)c1ccc[nH]1` [Compound 113]: in the assay on SIRT2 [2], the concentration for half-maximal inhibition (IC50) was 42.7 µM.

In the case of `COc1ccc(CNC2CCc3c(sc4ncn(Cc5cccc6ccccc56)c(=O)c34)C2)cn1` (centres unmarked) [Compound 75], the half-maximal inhibitory concentration (IC50) with SIRT2 [3] is 7.59 µM.

In the case of `O=c1c2c3c(sc2ncn1Cc1cccc(-c2ccccc2)c1)CC(NCCN1CCOCC1)CC3` (centres unmarked) [Compound 103], the concentration for half-maximal inhibition (IC50) in the assay on SIRT2 [3] is 3.14 µM.

As for `O=c1c2c3c(sc2ncn1Cc1cccc2ccccc12)CC(NCCc1ccncc1)CC3` (centres unmarked) [Compound 82], in the assay with SIRT2 [3], the IC50 is 5.79 µM.

Consider `COc1ccc(CNC2CCc3c(sc4ncn(Cc5cccc6cccnc56)c(=O)c34)C2)cc1` (centres unmarked) [Compound 59], for which, in the assay with SIRT2 [3], the IC50 is 1.83 µM.

Take `O=C(On1nnc2ccccc21)c1cc[nH]c1` [Compound 112]: the IC50 in the assay on SIRT2 [2] was 56.6 µM.

Take `Cc1noc(C)c1CNC1CCc2c(sc3ncn(Cc4cccc5ccccc45)c(=O)c23)C1` (centres unmarked) [Compound 35]: the half-maximal inhibitory concentration (IC50) in the assay with SIRT2 [3] was 1.85 µM.

Consider `COc1ccc(CNC2CCc3c(sc4ncn(Cc5c(OC)ccc6ccccc56)c(=O)c34)C2)cc1` (centres unmarked) [Compound 56], for which the half-maximal inhibitory concentration (IC50) with SIRT2 [3] is < 1 µM and 0.65 µM.

For `CSc1cccc(Nc2nc(-c3ccc4[nH]c(=O)sc4c3)cs2)c1` [Compound 5a], the inhibition at 150 µM on recombinant SIRT2 worked out at 76 ± 9%. In addition, the inhibition at 300 µM on recombinant human HSP70 is 19 ± 1%.

Turning to `O=c1c2c3c(sc2ncn1Cc1cccc2ccccc12)CC(NCC1CCCO1)CC3` (centres unmarked) [Compound 91], the IC50 in the assay on SIRT2 [3] is 12.5 µM.

Source of the values: publication PMC10535842, “Novel Thiazole-Based SIRT2 Inhibitors Discovered via Molecular Modelling Studies and Enzymatic Assays” (Pharmaceuticals, 2023).
